According to patent US20250222117A1, “COMPOUND COMPRISING RALTITREXED OR 5-MTHF LINKED TO A THERAPEUTIC AGENT, COMPOSITION, AND METHOD OF USE” (PURDUE RESEARCH FOUNDATION, priority 2022, published 2025):

Test system: murine CD45+CD4+CD25+ Tregs
Test: Treg suppression assay: pre-treated Tregs co-cultured with CFSE-labeled effector T cells, flow cytometry
Format: cell-based, mouse
Details: Tregs pre-treated 10 nM for 3 hours, 1:4 ratio, 4 days
Method: Murine CD45+CD4+CD25+ Tregs and CD45+CD4+CD25− effector T cells were isolated from healthy mice using a StemCell mouse Treg Isolation Kit (StemCell Technologies, Cambridge, MA). The cells were used in two different assays.
First, Tregs that were either pre-treated with 10 nM TLR7-1A agonist for 3 hours or left untreated were co-cultured with CFSE-labeled effector T cells at 1:4 ratio, with or without CD3/CD28 activation beads. Incubation proceeded for 4 days before flow cytometry analysis.

For `CCCCc1nc2c(N)nc3ccccc3c2n1CC(C)(C)CO` [TLR7-1A agonist, 3-(4-amino-2-butyl-1H-imidazo[4,5-c]quinolin-1-yl)-2,2-dimethylpropan-1-ol], the “effect on Treg suppression of CD4+ T cell proliferation” value was “reversed the suppressive activity”.
